Test results taken from patent US9090549B2, “1,4-naphthoquinones derivatives and therapeutic use thereof” (CENTRE NATIONAL DE LA RECHERCHE SCIENTIFIQUE (C.N.R.S.), priority 2008, dated 2015).
Where two headings read alike, the source gives them in different places.

Key:
[1] = target: T1, human glutathione reductase (hGR) (Homo sapiens, UniProt P00390); experiment: Inhibition of human glutathione reductase under steady-state conditions; type: biochemical; conditions: pH 6.9, 25° C., 1 mM GSSG, 100 μM NADPH
T1 sequence (P00390 44-522): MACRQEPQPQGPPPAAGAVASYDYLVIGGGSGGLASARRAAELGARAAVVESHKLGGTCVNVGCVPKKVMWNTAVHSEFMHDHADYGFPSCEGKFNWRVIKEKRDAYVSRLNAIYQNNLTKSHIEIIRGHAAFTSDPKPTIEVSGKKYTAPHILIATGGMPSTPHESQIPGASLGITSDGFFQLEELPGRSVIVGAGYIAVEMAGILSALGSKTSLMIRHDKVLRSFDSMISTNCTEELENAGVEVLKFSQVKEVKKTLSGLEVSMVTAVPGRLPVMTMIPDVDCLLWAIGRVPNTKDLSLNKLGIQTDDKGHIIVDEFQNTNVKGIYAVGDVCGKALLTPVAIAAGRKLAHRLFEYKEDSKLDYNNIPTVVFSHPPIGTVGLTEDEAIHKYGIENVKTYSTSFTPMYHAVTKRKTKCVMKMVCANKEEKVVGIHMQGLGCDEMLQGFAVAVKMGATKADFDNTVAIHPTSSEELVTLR

[2] = target: T2, P. falciparum glutathione reductase (PfGR) (Plasmodium falciparum, UniProt Q94655); experiment: 1,4-Naphthoquinone reductase activity of P. falciparum glutathione reductase; type: biochemical; conditions: with respect to menadione
Procedure: The reduction assay mixture consisted of 100 mM potassium phosphate buffer pH 6.9, 200 mM KCl, 1 mM EDTA and 100 μM NADPH in a total volume of 1 mL. 1,4-naphthoquinone reductase activity was determined by recording the initial velocities in the presence of increasing naphthoquinone concentrations (0-300 μM). […] For the determination of KM and Vmax values, the steady-state rates were fitted by using nonlinear regression analysis software (Kaleidagraph) to the Michaelis-Menten equation. From these values, the turnover number kcat and the catalytic efficiency kcat/KM were calculated.

[3] = target: T2, P. falciparum glutathione reductase (PfGR); experiment: biochemical
Procedure: The standard assay was conducted at 25° C. in a 1 mL-cuvette. The assay mixture contained 100 μM NADPH and 1 mM GSSG in GR buffer (100 mM potassium phosphate buffer, 200 mM KCl, 1 mM EDTA, pH 6.9). […] Inhibitor stock solutions were prepared in 100% DMSO. 1% DMSO concentration was kept constant in the assay cuvette. The reaction was started by adding enzyme (8 mU human GR, 6.5 mU P. falciparum GR) and initial rates of NADPH oxidation were monitored at 340 nm (ε340 nm=6.22 mM^−1 cm^−1).

[4] = test system: P. falciparum multidrug-resistant strain Dd2; experiment: Dd2 growth inhibition, 3H-hypoxanthine assay; type: cell-based, Plasmodium falciparum; conditions: Plasmodium falciparum, DD2, read-out: IC50 against Dd2
Procedure: The IC50 was tested by standard in vitro antiproliferation assays (Desjardins et al, 1979 Antimicrob. Agents Chemother 1979, 16, 710-718). Infected erythrocytes in ring stage (0.5% parasitemia, 2.5% hematocrit) in 96-well plates were exposed to the compounds for 48 h and then to radioactive hypoxanthine for 24 h. The amount of radioactivity in precipitable material served as an index of cell proliferation.

[5] = test system: P. falciparum chloroquine sensitive strain 3D7; experiment: 3D7 growth inhibition, 3H-hypoxanthine assay; type: cell-based, Plasmodium falciparum; conditions: read-out: IC50 against Pf 3D7
Procedure: (§1) The IC50 values against Pf-GHA and MRC-5 were determined by using the less sensitive colorimetric NBT-based lactate dehydrogenase assay (Makler et al, Am. J. Trop. Med. Hyg. 1993, 48 (6), 739-741) based on redox-reactions.
(§2) Parasite Cultures. […] P. falciparum in vitro culture was carried out using standard protocols (Trager et al, 1976 Science, 193, 673-675) with modifications. Briefly, parasites were maintained in tissue culture flasks in human A Rh+ erythrocytes at 5% hematocrit in RPMI 1640 supplemented with 25 mM HEPES, 24 mM NaHCO3, 0.2% (w/v) glucose, 0.03% L-glutamine, 150 μM hypoxanthine, and 0.5% Albumax II® (Invitrogen) in a 5% CO2/air mixture at 37° C., and the medium was changed daily.
(§3) In Vitro Antiparasitic Bioassays. Drug susceptibility of P. falciparum was studied using a modified method (Cameron et al, 2004 J. Biol. Chem. 279, 31429-31439) of the protocol described previously (Desjardins et al, 1979). All assays included CQ diphosphate (Sigma, UK) as a standard and control wells with untreated infected and uninfected erythrocytes. IC50 values were derived by sigmoidal regression analysis (Microsoft Xlfit™).

[6] = test system: P. falciparum chloroquine resistant strain K1; experiment: K1 growth inhibition, 3H-hypoxanthine assay; type: cell-based, Plasmodium falciparum; conditions: read-out: IC50 against Pf K1
Procedure: as §1, §2, §3

Pf-GHA = Pf-GHA growth inhibition, colorimetric NBT-based lactate dehydrogenase assay; type: cell-based; conditions: Plasmodium falciparum, 72 h, read-out: IC50 against Pf-GHA
Procedure: as §1
In Vitro Antiparasitic Bioassays. The strain is maintained in RPMI-1640 medium supplemented with 0.37 mM hypoxanthine, 25 mM HEPES, 25 mM NaHCO3, and 10% O^+ human serum together with 2-4% washed human O^+ erythrocytes. All cultures and assays are conducted under an atmosphere of 4% CO2, 3% O2 and 93% N2. Assays are performed in 96-well microtiter plates, each well containing 10 μL of the watery compound dilutions together with 190 μL of the malaria parasite inoculum (1% parasitaemia, 2% HCT). After 72 h incubation, plates are frozen and stored at −20° C. After thawing, 20 μL of each well is transferred into another plate together with 100 μL Malstat reagent and 20 μL of 1/1 mixture of PES (phenazine ethosulfate, 0.1 mg/mL) and NBT (Nitro Blue Tetrazolium Grade III, 2 mg/mL). Change in colour is measured spectrophotometrically at 655 nm. The results are expressed as % reduction in parasitaemia compared to control wells. Compounds are treated at 5 concentrations (64-16-4-1 and 0.25 μM or μg/mL).

P. berghei ANKA = experiment: In vivo 4-day suppressive test in P. berghei-infected mice; design: species or system Plasmodium berghei; conditions: for reduction of the parasitemia: Plasmodium Berghei ANKA-infected CD1 mice
Procedure: The in vivo tests in the mouse model were done according to a standard protocol (Peters et al Handbook of Animal Models of Infection; Academic Press, London, 1999; pp. 756-771). […] […] For administration, compounds were freshly prepared in 10% DMSO in sterile phosphate-buffered saline the day of use. Two hours post-infection mice received the first treatment by the intraperitoneal route. Mice were further treated on days +1-3. Blood films from tail blood were prepared on day +4, and parasitaemia was determined by microscopic examination of Giemsa-stained blood films. […] […] Mice were treated and levels of parasitemia determined as described.

Pf H = experiment: microbe, parasite or virus in culture; conditions: Plasmodium falciparum, read-out: IC50 against Pf H
P. falciparum 3D7 = experiment: microbe, parasite or virus in culture; conditions: Plasmodium falciparum, 3D7, 48 h
Procedure: (§4) Twelve parasite strains or isolates from a wide panel of countries (Africa (3D7), Brazil (Bre), Cambodia (K2 and K14), Cameroon (FCM29), Djibouti (Vol1), the Gambia (FCR3), Indochina (W2), Niger (L1), Senegal (8425), Sierra Leone (D6), and Uganda (PA)) were maintained in culture in RPMI 1640 (Invitrogen, Paisley, United Kingdom), supplemented with 10% human serum (Abcys S.A. Paris, France) and buffered with 25 mM HEPES and 25 mM NaHCO3. Parasites were grown in A-positive human blood under controlled atmospheric conditions that consists of 10% O2, 5% CO2 and 85% N2 at 37° C. with a humidity of 95%.
(§5) FQ and synthetic compounds were resuspended and then diluted in RPMI-DMSO (99 v/1 v) to obtain final concentration ranged from 0.125 to 500 nM. […]
(§6) For in vitro isotopic microtests, 25 μL/well of antimalarial drug and 200 μL/well of the parasitized red blood cell suspension (final parasitemia, 0.5%; final hematocrit, 1.5%) were distributed into 96 well plates. Parasite growth was assessed by adding 1 μCi of tritiated hypoxanthine with a specific activity of 14.1 Ci/mmol (Perkin-Elmer, Courtaboeuf, France) to each well at time zero. […] Radioactivity incorporated by the parasites was measured with a scintillation counter (Top Count; Perkin-Elmer).
(§7) The IC50 value was determined by non-linear regression analysis of log-based dose-response curves (Riasmart™, Packard, Meriden, USA).

P. falciparum FCM29 = experiment: microbe, parasite or virus in culture; conditions: Plasmodium falciparum, 48 h
Procedure: as §4, §5, §6, §7

methemoglobin(Fe3+) = methemoglobin(Fe3+) (Homo sapiens, UniProt P68871+P69905); experiment: Redox-cycling of methemoglobin(Fe3+) into oxyhemoglobin(Fe2+) with NADPH/GR system; type: biochemical; conditions: 100 μM MetHb, NADPH, human GR
Description: Since FPIX(Fe^2+) is an inhibitor of hematin polymerization, compounds displaying the ability to reduce FPIX(Fe^3+) into FPIX(Fe^2+) might synergistically contribute with GR inhibition to increased oxidative stress in infected-red blood cells. To evaluate the redox-cycling activity of FPIX(Fe^3+) into FPIX(Fe^2+) we set up an assay using the naphthoquinone, the glutathione reductase/NADPH-based system to regenerate the dihydronaphthoquinone continuously and methemoglobin(Fe^3+) (MetHb). The UV-spectrum of MetHb between 300 nm and 700 nm is characterized by a maximal absorbance at 405 nm and a broad band centered at around 630 nm. […] We used 20 μM methylene blue as positive control of this redox-cycling activity.
In an Eppendorf tube containing 6.4 mg MetHb dissolved in 885 μL GR buffer (47 mM potassium phosphate buffer pH 6.9, 200 mM KCl, 100 mM EDTA), 10 μL 20 mM P_TM25 dissolved in DMSO and 100 μL NADPH dissolved in GR buffer were added. The reaction was started by the addition of 5 μL human GR and then incubated at 37° C. In a 1 mL cuvette 20 μL of the reaction mixture was diluted with 980 μL GR buffer and a UV-spectra between 300 nm and 700 nm was done after 5 min, 10 min, 20 min and 30 min incubation time. The final concentrations in the reaction mixture were 100 μM MetHb, 200 μM P_TM25, 400 μM NADPH and […] hGR, final DMSO concentration 1%.
Spectra were measured after 5 min (blue), 10 min (black), 20 min (green) and 30 min (red).

[7] = target: T2, P. falciparum glutathione reductase (PfGR); conditions: menadione reference, Bauer et al 2006; cited from earlier work
[8] = target: T1, human glutathione reductase (hGR); conditions: menadione reference, Bauer et al 2006; cited from earlier work
[9] = target: T2, P. falciparum glutathione reductase (PfGR); conditions: menadione against PfGR, Biot et al 2004; cited from earlier work

T2 sequence (Q94655 2-500 limits assumed): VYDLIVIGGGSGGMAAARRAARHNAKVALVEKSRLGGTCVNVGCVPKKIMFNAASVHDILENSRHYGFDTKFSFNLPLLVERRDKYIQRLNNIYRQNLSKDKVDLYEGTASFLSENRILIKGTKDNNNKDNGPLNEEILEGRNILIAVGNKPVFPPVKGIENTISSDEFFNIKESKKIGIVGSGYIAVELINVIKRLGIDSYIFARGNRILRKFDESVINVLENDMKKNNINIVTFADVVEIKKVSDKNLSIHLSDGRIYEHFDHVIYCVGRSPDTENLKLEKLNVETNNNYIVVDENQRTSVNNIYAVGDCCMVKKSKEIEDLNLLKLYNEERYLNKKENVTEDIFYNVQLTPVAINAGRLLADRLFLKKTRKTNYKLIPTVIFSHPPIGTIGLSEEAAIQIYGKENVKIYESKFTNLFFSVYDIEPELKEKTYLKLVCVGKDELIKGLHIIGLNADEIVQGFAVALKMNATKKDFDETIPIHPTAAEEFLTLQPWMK
Chain of methemoglobin(Fe3+) (P69905 2-142 limits assumed): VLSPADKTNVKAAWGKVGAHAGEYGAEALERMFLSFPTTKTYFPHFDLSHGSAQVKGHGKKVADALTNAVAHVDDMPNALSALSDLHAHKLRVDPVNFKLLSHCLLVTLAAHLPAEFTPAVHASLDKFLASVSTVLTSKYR
Chain of methemoglobin(Fe3+) (P68871 2-147 limits assumed): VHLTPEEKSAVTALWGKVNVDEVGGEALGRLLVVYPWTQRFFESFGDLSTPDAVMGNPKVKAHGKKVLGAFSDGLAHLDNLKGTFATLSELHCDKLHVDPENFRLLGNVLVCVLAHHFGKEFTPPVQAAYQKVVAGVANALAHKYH

CC1=C(C(O)c2ccc(Br)cc2)C(=O)c2ccccc2C1=O (centres unmarked) [P_TM23, 2-[(4-Bromo-phenyl)-hydroxy-methyl]-3-methyl-[1,4]naphthoquinone]
IC50 [1]: 1.3 µM
substrate behaviour from catalytic efficiencies kcat/KM [2]: very effective substrates
melting point: 61 to 62 °C
IC50 [3]: 4.5 µM

CCN(CC)CCCC(C)Nc1ccnc2cc(Cl)ccc12 (centres unmarked) [chloroquine, reference compound]
IC50 [4]: 0.291 µM
IC50 [5]: ~0.02 µM
IC50 [6]: ~1 µM
IC50 (Pf-GHA): 0.05 µM
reduction of the parasitemia (P. berghei ANKA; 1.0 mg/kg): 2.5%
reduction of the parasitemia (P. berghei ANKA; 3.0 mg/kg): 16.6%
inhibition of parasitaemia (P. berghei ANKA; 10 mg/kg i.p.): 98.9%
reduction of the parasitemia (P. berghei ANKA; 10.0 mg/kg): 94.9%
inhibition of parasitaemia (P. berghei ANKA; p.o. at 10 mg/kg/day, positive control): complete inhibition
IC50 (Pf H): 0.217 µM
IC50 (P. falciparum 3D7; read-out: IC50 against strain 3D7): 0.0213 µM
IC90 (P. falciparum 3D7; read-out: IC90 against strain 3D7): 0.0404 µM
IC50 (P. falciparum FCM29; read-out: IC50 against strain FCM29): 0.879 µM
IC90 (P. falciparum FCM29; read-out: IC90 against strain FCM29): 1.24 µM

CC1=CC(=O)c2ccccc2C1=O [menadione]
concentration at which the shift of maximal absorbance of MetHb from 405 to 410 nm starts being visible (methemoglobin(Fe3+)): 50 µM
IC50 [7]: 42 µM
IC50 [8]: 27.5 µM
Km [9]: 82.2 µM
kcat [9]: 0.16 s⁻¹
